Where “and” joins values, the source holds several entries; their conditions need not be identical. Identical values can stand only once. Inconclusive results are not listed. Rule for the calls: active = survival T/C of 150% or more; inactive = T/C below 125% in these data.
Tested on: CD2F1 mice, Lymphoma 8 ip, survival T/C
Assay: NCI In Vivo Anticancer Drug Screen. Data for tumor model Lymphoma 8 (intraperitoneal) in CD2F1 (CDF1) mice
Settings: higher = longer survival
Procedure: The antitumor activity of compounds was measured in mice bearing transplantable tumors. Survival or tumor size were measured and the results are expressed as the measurement made in the treated group (T) divided by the measurement made in the vehicle treated control group (C). The tumor model used in this assay is Lymphoma 8 (intraperitoneal) in CD2F1 (CDF1) mice

[1] = endpoint: median survival time, dose: 50.0 mg/kg/injection, schedule: Q01DX009 (ip), vehicle: saline
[2] = endpoint: median survival time, dose: 100.0 mg/kg/injection, schedule: Q01DX009 (ip), vehicle: saline
[3] = endpoint: median survival time, dose: 75.0 mg/kg/injection, schedule: Q01DX005 (ip), vehicle: saline
[4] = endpoint: median survival time, dose: 150.0 mg/kg/injection, schedule: Q01DX005 (ip), vehicle: saline
[5] = endpoint: median survival time, dose: 12.5 mg/kg/injection, schedule: Q01DX005 (ip), vehicle: saline
[6] = endpoint: median survival time, dose: 25.0 mg/kg/injection, schedule: Q01DX005 (ip), vehicle: saline
[7] = endpoint: median survival time, dose: 50.0 mg/kg/injection, schedule: Q01DX005 (ip), vehicle: saline
[8] = endpoint: median survival time, dose: 100.0 mg/kg/injection, schedule: Q01DX005 (ip), vehicle: water
[9] = endpoint: median survival time, dose: 200.0 mg/kg/injection, schedule: Q01DX005 (ip), vehicle: water
[10] = endpoint: median survival time, dose: 400.0 mg/kg/injection, schedule: Q01DX005 (ip), vehicle: water
[11] = endpoint: median survival time, dose: 100.0 mg/kg/injection, schedule: Q01DX005 (ip), vehicle: saline

Measured: T/C

NC(=O)C(F)(F)C(N)C(=O)O (centres undefined)
inactive: [1] 88 % of control | [2] 88 % of control

CCSCCC(N)C(=O)O (centres undefined)
inactive: endpoint: median survival time, dose: 37.5 mg/kg/injection, schedule: Q01DX005 (ip), vehicle: saline 107 % of control and 109 % of control | [3] 100 % of control and 103 % of control | [4] 81 % of control

O=c1[nH]cc(F)c(=O)[nH]1
inactive: endpoint: median survival time, dose: 13.0 mg/kg/injection, schedule: Q04DX003 (ip), vehicle: saline 110 % of control | endpoint: median survival time, dose: 21.8 mg/kg/injection, schedule: Q04DX003 (ip), vehicle: saline 118 % of control | endpoint: median survival time, dose: 36.0 mg/kg/injection, schedule: Q04DX003 (ip), vehicle: saline 114 % of control | endpoint: median survival time, dose: 100.0 mg/kg/injection, schedule: Q04DX003 (ip), vehicle: saline 62 % of control

NC(=O)CC(N)CO (centres undefined)
inactive: [1] 87 % of control and 100 % of control | [2] 91 % of control and 100 % of control | endpoint: median survival time, dose: 200.0 mg/kg/injection, schedule: Q01DX009 (ip), vehicle: saline 97 % of control and 98 % of control | endpoint: median survival time, dose: 400.0 mg/kg/injection, schedule: Q01DX009 (ip), vehicle: saline 91 % of control and 102 % of control

NC(CC(=O)CCl)C(=O)O (centres undefined)
inactive: endpoint: median survival time, dose: 1.6 mg/kg/injection, schedule: Q01DX005 (ip), vehicle: saline 100 % of control | endpoint: median survival time, dose: 3.13 mg/kg/injection, schedule: Q01DX005 (ip), vehicle: saline 92 % of control and 96 % of control and 108 % of control | endpoint: median survival time, dose: 6.25 mg/kg/injection, schedule: Q01DX005 (ip), vehicle: saline 100 % of control and 103 % of control and 108 % of control | endpoint: median survival time, dose: 12.5 mg/kg/injection, schedule: Q01DX001 (ip), vehicle: saline 100 % of control | [5] 100 % of control and 103 % of control and 107 % of control | endpoint: median survival time, dose: 25.0 mg/kg/injection, schedule: Q01DX001 (ip), vehicle: saline 100 % of control | [6] 111 % of control and 114 % of control and 120 % of control | endpoint: median survival time, dose: 50.0 mg/kg/injection, schedule: Q01DX001 (ip), vehicle: saline 108 % of control | [7] 37 % of control | endpoint: median survival time, dose: 100.0 mg/kg/injection, schedule: Q01DX001 (ip), vehicle: saline 91 % of control

NCC(=O)O
inactive: endpoint: median survival time, dose: 187.5 mg/kg/injection, schedule: Q04HX003 (ip), vehicle: saline 86 % of control | endpoint: median survival time, dose: 375.0 mg/kg/injection, schedule: Q04HX003 (ip), vehicle: saline 86 % of control | endpoint: median survival time, dose: 750.0 mg/kg/injection, schedule: Q04HX003 (ip), vehicle: saline 81 % of control | endpoint: median survival time, dose: 1500.0 mg/kg/injection, schedule: Q04HX003 (ip), vehicle: saline 75 % of control

NC(C(=O)O)C(F)(F)C(=O)O (centres undefined)
inactive: endpoint: median survival time, dose: 3.12 mg/kg/injection, schedule: Q01DX009 (ip), vehicle: saline 93 % of control | endpoint: median survival time, dose: 6.25 mg/kg/injection, schedule: Q01DX009 (ip), vehicle: saline 97 % of control | endpoint: median survival time, dose: 12.5 mg/kg/injection, schedule: Q01DX009 (ip), vehicle: saline 87 % of control and 89 % of control | endpoint: median survival time, dose: 25.0 mg/kg/injection, schedule: Q01DX009 (ip), vehicle: saline 100 % of control | [1] 107 % of control

O=c1[nH]c(=O)n(C2CC(O)C(CO)O2)cc1F (centres undefined)
inactive: endpoint: survival time, mean or median, dose: 5.0 mg/kg/injection, schedule: Q01DX010 (ip), vehicle: saline 104 % of control | endpoint: survival time, mean or median, dose: 10.0 mg/kg/injection, schedule: Q01DX010 (ip), vehicle: saline 109 % of control | endpoint: survival time, mean or median, dose: 20.0 mg/kg/injection, schedule: Q01DX010 (ip), vehicle: saline 113 % of control

CC[C@H]1CN2CCc3cc(OC)c(OC)cc3[C@@H]2C[C@@H]1C[C@H]1NCCc2cc(OC)c(OC)cc21
inactive: endpoint: median survival time, dose: 1.87 mg/kg/injection, schedule: Q04DX003 (ip), vehicle: saline 107 % of control | endpoint: median survival time, dose: 2.5 mg/kg/injection, schedule: Q04DX003 (ip), vehicle: saline 103 % of control | endpoint: median survival time, dose: 3.7 mg/kg/injection, schedule: Q04DX003 (ip), vehicle: water 107 % of control | endpoint: median survival time, dose: 3.75 mg/kg/injection, schedule: Q04DX003 (ip), vehicle: saline 111 % of control | endpoint: median survival time, dose: 5.0 mg/kg/injection, schedule: Q04DX003 (ip), vehicle: saline 100 % of control | endpoint: median survival time, dose: 7.5 mg/kg/injection, schedule: Q04DX003 (ip), vehicle: saline 111 % of control | endpoint: median survival time, dose: 7.5 mg/kg/injection, schedule: Q04DX003 (ip), vehicle: water 107 % of control | endpoint: median survival time, dose: 10.0 mg/kg/injection, schedule: Q04DX003 (ip), vehicle: saline 100 % of control | endpoint: median survival time, dose: 15.0 mg/kg/injection, schedule: Q04DX003 (ip), vehicle: saline 118 % of control | endpoint: median survival time, dose: 15.0 mg/kg/injection, schedule: Q04DX003 (ip), vehicle: water 107 % of control | endpoint: median survival time, dose: 20.0 mg/kg/injection, schedule: Q04DX003 (ip), vehicle: saline 103 % of control

CNC(=O)CC(N)C(=O)O (centres undefined)
inactive: [3] 96 % of control and 102 % of control | [4] 107 % of control and 113 % of control | endpoint: median survival time, dose: 300.0 mg/kg/injection, schedule: Q01DX005 (ip), vehicle: saline 93 % of control and 113 % of control | endpoint: median survival time, dose: 600.0 mg/kg/injection, schedule: Q01DX005 (ip), vehicle: saline 95 % of control and 114 % of control | endpoint: median survival time, dose: 1200.0 mg/kg/injection, schedule: Q01DX005 (ip), vehicle: saline 102 % of control

O=C1NC(O)CCN1C1OC(CO)C(O)C1O (centres undefined)
inactive: endpoint: median survival time, dose: 10.0 mg/kg/injection, schedule: Q01DX015 (ip), vehicle: saline 102 % of control and 109 % of control | endpoint: median survival time, dose: 10.0 mg/kg/injection, schedule: Q04DX008 (ip), vehicle: saline 100 % of control and 101 % of control | endpoint: median survival time, dose: 10.0 mg/kg/injection, schedule: Q## X015 (ip), vehicle: saline 102 % of control and 109 % of control | endpoint: median survival time, dose: 30.0 mg/kg/injection, schedule: Q01DX015 (ip), vehicle: saline 102 % of control and 112 % of control | endpoint: median survival time, dose: 30.0 mg/kg/injection, schedule: Q04DX008 (ip), vehicle: saline 101 % of control (2×) and 103 % of control | endpoint: median survival time, dose: 30.0 mg/kg/injection, schedule: Q## X015 (ip), vehicle: saline 102 % of control and 112 % of control | endpoint: median survival time, dose: 100.0 mg/kg/injection, schedule: Q01DX015 (ip), vehicle: saline 102 % of control and 104 % of control | endpoint: median survival time, dose: 100.0 mg/kg/injection, schedule: Q04DX008 (ip), vehicle: saline 101 % of control (2×) and 103 % of control | endpoint: median survival time, dose: 100.0 mg/kg/injection, schedule: Q## X015 (ip), vehicle: saline 102 % of control and 104 % of control | endpoint: median survival time, dose: 300.0 mg/kg/injection, schedule: Q01DX015 (ip), vehicle: saline 99 % of control and 101 % of control | endpoint: median survival time, dose: 300.0 mg/kg/injection, schedule: Q04DX008 (ip), vehicle: saline 99 % of control and 102 % of control | endpoint: median survival time, dose: 300.0 mg/kg/injection, schedule: Q## X015 (ip), vehicle: saline 99 % of control and 101 % of control | endpoint: median survival time, dose: 1000.0 mg/kg/injection, schedule: Q01DX015 (ip), vehicle: saline 101 % of control | endpoint: median survival time, dose: 1000.0 mg/kg/injection, schedule: Q04DX008 (ip), vehicle: saline 99 % of control and 105 % of control | endpoint: median survival time, dose: 1000.0 mg/kg/injection, schedule: Q## X015 (ip), vehicle: saline 101 % of control

NC(CC(=O)O)C(=O)O (centres undefined)
inactive: [8] 95 % of control and 100 % of control | [9] 100 % of control | [10] 100 % of control | endpoint: median survival time, dose: 800.0 mg/kg/injection, schedule: Q01DX005 (ip), vehicle: water 91 % of control

NC(CC(=O)NO)C(=O)O (centres undefined)
inactive: [8] 100 % of control | [9] 108 % of control | [10] 108 % of control

NC(CS(N)(=O)=O)C(=O)O (centres undefined)
inactive: [7] 92 % of control | [11] 92 % of control | endpoint: median survival time, dose: 200.0 mg/kg/injection, schedule: Q01DX005 (ip), vehicle: saline 96 % of control and 97 % of control | endpoint: median survival time, dose: 400.0 mg/kg/injection, schedule: Q01DX005 (ip), vehicle: saline 92 % of control and 94 % of control

CC(=O)Nc1c(Cl)cc2c(c1Cl)Cc1cc([N+](=O)[O-])ccc1-2
inactive: endpoint: survival time, mean or median, dose: 3.9 mg/kg/injection, schedule: Q01DX010 (ip), vehicle: saline 87 % of control

O=CC(S)CO (centres undefined)
inactive: endpoint: median survival time, dose: 25.0 mg/kg/injection, schedule: Q01DX010 (ip), vehicle: saline 92 % of control | endpoint: median survival time, dose: 50.0 mg/kg/injection, schedule: Q01DX010 (ip), vehicle: saline 92 % of control | endpoint: median survival time, dose: 100.0 mg/kg/injection, schedule: Q01DX010 (ip), vehicle: saline 100 % of control

CN(C)C(=O)/N=N/C(=O)N(C)C
inactive: [5] 95 % of control and 96 % of control and 98 % of control | [6] 90 % of control and 92 % of control and 96 % of control | [7] 90 % of control and 91 % of control and 104 % of control | [11] 88 % of control and 90 % of control (2×)

Nc1ncnc2[nH]ncc12
inactive: endpoint: survival time, mean or median, dose: 1.5 mg/kg/injection, schedule: Q01DX010 (ip), vehicle: saline 90 % of control and 95 % of control | endpoint: survival time, mean or median, dose: 3.0 mg/kg/injection, schedule: Q01DX010 (ip), vehicle: saline 100 % of control | endpoint: survival time, mean or median, dose: 6.0 mg/kg/injection, schedule: Q01DX010 (ip), vehicle: saline 90 % of control and 95 % of control | endpoint: survival time, mean or median, dose: 12.0 mg/kg/injection, schedule: Q01DX010 (ip), vehicle: saline 90 % of control

— PubChem BioAssay AID244 (DTP/NCI, 2004)
